Experiments:
[1] = system: plasma protein extravasation; assay: mCPP model in guinea pigs: plasma protein extravasation in the dura mater (EvansBlue); format: in vivo; conditions: for plasma protein extravasation as EvansBlue extinction at 600nm: 2 minutes before 1µg/kg mCPP, guinea pigs
Protocol: Functional test of Pimethixene in the mCPP model in guinea pigs.
In accordance to the protocol published by Markowitz et. al; (1987) and Olesen et. al; (2000), guinea pigs were used to determine the amount of plasma protein released at the blood vessels within the Dura mater after mCPP application. […] 2 minutes later 1µg/kg body weight mCPP were injected and followed by the i.v. application of EvansBlue as marker for the protein plasma extravasation. 15 minutes later animals were transcranial perfused and decapitated. A,defined area of the dura mater was isolated and transferred into an eppendorf tube containing 200µl formamid. Because EvansBlue binds to plasma protein, the amount of bound marker dye is a measure of extravasation of plasma protein. Formamid dissolves EvansBlue from the protein which can be colorimetric detected and quantified at 600 nm. Table 2: Determination of plasma protein extravasation as EvansBlue extinction at 600nm.

[2] = target: T1, 5-HT2A receptor (Homo sapiens, UniProt P28223); assay: 5-HT2A receptor binding method, [3H]ketanserin; conditions: read-out: pKi values (converted)
T1 construct: expressed in transfected cells; host or cells: HEK293

[3] = target: T2, 5-HT2C receptor (Homo sapiens, UniProt P28335); assay: 5-HT2C receptor binding method, [3H]mesulergine; conditions: read-out: pKi values (converted)
T2 construct: expressed in transfected cells; host or cells: Cos-7
Protocol: 5-HT2C receptors were labelled in Cos-7 cells expressing the human 5-HT2C receptor and in NIH-3T3 expressing the rat 5-HT2C receptor.
Assays were conducted as described for the 5-HT2A receptor except that the radioligand was [^3H]mesulergine. […] .

[4] = target: T3, human H1 receptor (Homo sapiens, UniProt P35367); assay: Cloned human H1 receptor binding assay, [3H]-mepyramine
T3 construct: expressed in transfected cells
Protocol: (§1) CHO cells were stably transfected with an expression plasmid pCineohH1, pCineohH2, pCineohH3 and pCineohH4 encoding the human Histamine H1, H2, H3 or H4 receptor, respectively. Recombinant cell lines were harvested after confluent growth, homogenized in ice-cold 50 mM Na2/potassium phosphate buffer (pH 7.4) and used for radioligand binding studies. Cell homogenates (40 - 50 µg of protein) were incubated for 30 min at 25°C in 50 mM Na2/potassium phosphate buffer (pH 7.4) in 400 µl with the various concentrations of either [^3H]-mepyramine, [^3H]-thiotidine, [^3H]-R-α-Methylhistamine, and [^3H]-pyramilamine for cells expressing recombinant human H1, H2, H3 and H4 receptors, respectively. The nonspecific binding was defined in the presence of 1 µM mianserin. In displacement studies, cell homogenated were incubated either with 1 nM [^3H]-mepyramine, 15 nM [^3H]-thiotidine, 0.5 nM [^3H]-R-α-Methylhistamine, or 15 nM [^3H]-pyramilamine and increasing concentrations of competing ligands. The incubations were stopped by rapid dilution with 3 ml of ice-cold 50 mM Na2/potassium phosphate buffer (pH 7.4). The bound radioactivity was seperated by filatration through Whatman GF/C filters that had been treated with 0.3 % polyethyleneimine. Filters were washed twice in 3 ml of buffer and radioactivity retained on the filters was measured by liquid scinitllation counting. […]

[5] = target: T4, human Histamine H2 receptor (Homo sapiens, UniProt P25021); assay: Cloned human H2 receptor binding assay, [3H]-thiotidine
T4 construct: expressed in transfected cells
Protocol: as §1

[6] = target: T5, human Histamine H3 receptor (Homo sapiens, UniProt Q9Y5N1); assay: Cloned human H3 receptor binding assay, [3H]-R-α-Methylhistamine
T5 construct: expressed in transfected cells
Protocol: as §1

[7] = target: T6, human Histamine H4 receptor (Homo sapiens, UniProt Q9H3N8); assay: Cloned human H4 receptor binding assay, [3H]-pyramilamine
T6 construct: expressed in transfected cells
Protocol: as §1

[8] = target: T7, M1 muscarinic receptor (Homo sapiens, UniProt P11229); assay: Receptor affinity, M1 (acetylcholine as agonist); format: binding; conditions: read-out: pKi values (converted)
T7 sequence (P11229 1-460): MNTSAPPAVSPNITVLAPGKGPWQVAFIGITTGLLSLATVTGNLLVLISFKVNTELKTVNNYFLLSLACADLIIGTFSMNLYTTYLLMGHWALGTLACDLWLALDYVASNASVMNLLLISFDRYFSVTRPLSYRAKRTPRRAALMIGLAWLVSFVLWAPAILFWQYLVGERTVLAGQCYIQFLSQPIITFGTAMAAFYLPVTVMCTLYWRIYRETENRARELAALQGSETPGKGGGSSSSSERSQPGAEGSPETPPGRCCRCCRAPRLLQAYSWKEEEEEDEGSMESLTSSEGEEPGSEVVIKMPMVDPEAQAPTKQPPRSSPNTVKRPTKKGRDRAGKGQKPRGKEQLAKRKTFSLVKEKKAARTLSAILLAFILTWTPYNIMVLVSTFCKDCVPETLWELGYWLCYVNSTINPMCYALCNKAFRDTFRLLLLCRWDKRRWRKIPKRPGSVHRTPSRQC
Protocol: (§2) Summary of pKi values of Pimethixene for the respective receptor subtypes. pKi values were calculated using the equation of Cheng and Prusoff {pKi = -log (IC50/[1+ used concentration of Agonist/EC50])}.EC80 values were calculated from corresponding dose-response experiment using 5-HT, histamine, epinephrine (alpha 1A adrenergic receptor), dopamine (D2 dopaminergic receptor), and acetylcholine (M1 muscarinic receptor) as agonists.

[9] = target: D2 dopaminergic receptor (Homo sapiens, UniProt P14416); assay: Receptor affinity, D2 (dopamine as agonist); format: binding; conditions: read-out: pKi values (converted)
Protocol: as §2

[10] = target: T8, alpha 1A adrenergic receptor (Homo sapiens, UniProt P35348); assay: Receptor affinity, Alpha 1A (epinephrine as agonist); format: binding; conditions: read-out: pKi values (converted)
T8 sequence (P35348 1-466): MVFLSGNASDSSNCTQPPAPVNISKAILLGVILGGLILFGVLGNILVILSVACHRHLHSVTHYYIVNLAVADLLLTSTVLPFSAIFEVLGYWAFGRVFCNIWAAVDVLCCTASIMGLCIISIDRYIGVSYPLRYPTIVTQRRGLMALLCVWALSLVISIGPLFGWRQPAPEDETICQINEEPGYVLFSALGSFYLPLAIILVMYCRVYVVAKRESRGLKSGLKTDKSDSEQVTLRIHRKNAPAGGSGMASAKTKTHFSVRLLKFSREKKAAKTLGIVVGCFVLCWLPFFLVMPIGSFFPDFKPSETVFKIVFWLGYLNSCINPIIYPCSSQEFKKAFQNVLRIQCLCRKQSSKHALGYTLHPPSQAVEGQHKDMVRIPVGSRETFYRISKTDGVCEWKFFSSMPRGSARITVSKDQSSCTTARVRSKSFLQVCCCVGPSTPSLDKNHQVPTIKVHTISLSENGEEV
Protocol: as §2

[11] = target: human 5-HT2B receptor (Homo sapiens, UniProt P41595); assay: Cloned human 5-HT2B receptor binding assay, [3H]-5HT
Chain of human 5-HT2B receptor (P41595 whole entry): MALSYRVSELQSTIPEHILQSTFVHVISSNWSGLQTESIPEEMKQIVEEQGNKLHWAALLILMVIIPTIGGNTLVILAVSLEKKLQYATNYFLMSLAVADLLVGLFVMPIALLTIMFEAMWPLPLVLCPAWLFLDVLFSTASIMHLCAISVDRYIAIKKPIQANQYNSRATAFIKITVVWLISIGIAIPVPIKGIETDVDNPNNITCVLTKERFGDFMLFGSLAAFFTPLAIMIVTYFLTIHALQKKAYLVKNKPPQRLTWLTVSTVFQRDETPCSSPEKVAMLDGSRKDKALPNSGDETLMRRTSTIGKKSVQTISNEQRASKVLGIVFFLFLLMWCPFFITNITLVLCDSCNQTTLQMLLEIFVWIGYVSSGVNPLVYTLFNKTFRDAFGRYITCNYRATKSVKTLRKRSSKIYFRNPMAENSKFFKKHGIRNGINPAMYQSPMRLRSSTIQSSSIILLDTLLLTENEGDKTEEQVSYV

T4 sequence (P25021 whole entry): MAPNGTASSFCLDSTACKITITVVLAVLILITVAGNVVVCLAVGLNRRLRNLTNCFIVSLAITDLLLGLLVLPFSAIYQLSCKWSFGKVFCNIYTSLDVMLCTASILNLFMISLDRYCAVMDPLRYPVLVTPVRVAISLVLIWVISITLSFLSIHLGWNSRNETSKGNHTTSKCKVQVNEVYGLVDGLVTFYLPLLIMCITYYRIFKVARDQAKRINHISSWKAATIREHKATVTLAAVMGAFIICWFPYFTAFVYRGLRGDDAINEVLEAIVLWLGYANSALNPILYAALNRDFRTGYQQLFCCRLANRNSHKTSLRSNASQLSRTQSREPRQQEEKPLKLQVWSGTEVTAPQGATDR
T3 sequence (P35367 whole entry): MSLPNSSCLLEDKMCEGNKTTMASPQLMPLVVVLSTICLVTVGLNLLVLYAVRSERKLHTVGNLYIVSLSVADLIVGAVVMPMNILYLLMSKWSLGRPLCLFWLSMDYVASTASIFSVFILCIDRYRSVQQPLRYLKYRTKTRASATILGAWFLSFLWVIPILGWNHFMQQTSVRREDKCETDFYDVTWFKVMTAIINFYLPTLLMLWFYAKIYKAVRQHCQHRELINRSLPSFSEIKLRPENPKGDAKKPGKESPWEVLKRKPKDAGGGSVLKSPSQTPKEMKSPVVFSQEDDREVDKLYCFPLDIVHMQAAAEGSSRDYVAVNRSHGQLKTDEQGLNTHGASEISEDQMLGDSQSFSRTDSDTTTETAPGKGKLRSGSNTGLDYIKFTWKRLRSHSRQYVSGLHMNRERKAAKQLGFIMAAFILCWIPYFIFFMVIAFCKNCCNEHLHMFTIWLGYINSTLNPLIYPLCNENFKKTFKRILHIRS
T5 sequence (Q9Y5N1 whole entry): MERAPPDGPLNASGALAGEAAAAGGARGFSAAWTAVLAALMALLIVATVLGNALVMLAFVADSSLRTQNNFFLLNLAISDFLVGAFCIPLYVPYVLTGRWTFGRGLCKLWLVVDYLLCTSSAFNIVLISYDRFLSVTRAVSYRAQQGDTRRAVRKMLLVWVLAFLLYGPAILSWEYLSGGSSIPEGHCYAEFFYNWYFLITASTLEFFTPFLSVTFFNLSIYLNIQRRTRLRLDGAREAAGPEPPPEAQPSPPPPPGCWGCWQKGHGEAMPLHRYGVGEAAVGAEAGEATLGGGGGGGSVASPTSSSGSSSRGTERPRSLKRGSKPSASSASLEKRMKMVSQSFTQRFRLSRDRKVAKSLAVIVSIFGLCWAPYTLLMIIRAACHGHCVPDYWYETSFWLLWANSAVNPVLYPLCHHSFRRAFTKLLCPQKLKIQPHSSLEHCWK
T6 sequence (Q9H3N8 whole entry): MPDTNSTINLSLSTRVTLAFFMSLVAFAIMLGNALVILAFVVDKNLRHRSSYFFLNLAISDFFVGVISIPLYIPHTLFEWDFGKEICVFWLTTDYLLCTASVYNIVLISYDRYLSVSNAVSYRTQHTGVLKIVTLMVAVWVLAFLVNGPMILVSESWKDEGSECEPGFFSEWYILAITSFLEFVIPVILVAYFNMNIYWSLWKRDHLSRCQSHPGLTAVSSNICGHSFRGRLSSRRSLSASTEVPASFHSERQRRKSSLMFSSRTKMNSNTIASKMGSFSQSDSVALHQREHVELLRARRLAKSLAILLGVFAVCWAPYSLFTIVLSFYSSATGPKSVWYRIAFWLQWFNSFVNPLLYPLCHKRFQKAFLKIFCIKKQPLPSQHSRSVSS
Chain of D2 dopaminergic receptor (P14416 whole entry): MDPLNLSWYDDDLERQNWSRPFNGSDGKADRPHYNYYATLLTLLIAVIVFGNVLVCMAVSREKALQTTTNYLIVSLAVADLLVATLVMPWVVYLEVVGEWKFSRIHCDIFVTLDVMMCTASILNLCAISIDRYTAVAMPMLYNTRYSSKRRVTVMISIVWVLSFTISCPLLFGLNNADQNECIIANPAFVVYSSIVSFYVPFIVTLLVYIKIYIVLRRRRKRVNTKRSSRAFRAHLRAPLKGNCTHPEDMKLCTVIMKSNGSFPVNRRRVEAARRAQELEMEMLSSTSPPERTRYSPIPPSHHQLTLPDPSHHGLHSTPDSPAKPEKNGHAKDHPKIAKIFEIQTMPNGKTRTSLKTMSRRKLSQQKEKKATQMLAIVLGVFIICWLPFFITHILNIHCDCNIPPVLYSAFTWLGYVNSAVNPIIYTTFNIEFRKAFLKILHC
T1 sequence (P28223 whole entry): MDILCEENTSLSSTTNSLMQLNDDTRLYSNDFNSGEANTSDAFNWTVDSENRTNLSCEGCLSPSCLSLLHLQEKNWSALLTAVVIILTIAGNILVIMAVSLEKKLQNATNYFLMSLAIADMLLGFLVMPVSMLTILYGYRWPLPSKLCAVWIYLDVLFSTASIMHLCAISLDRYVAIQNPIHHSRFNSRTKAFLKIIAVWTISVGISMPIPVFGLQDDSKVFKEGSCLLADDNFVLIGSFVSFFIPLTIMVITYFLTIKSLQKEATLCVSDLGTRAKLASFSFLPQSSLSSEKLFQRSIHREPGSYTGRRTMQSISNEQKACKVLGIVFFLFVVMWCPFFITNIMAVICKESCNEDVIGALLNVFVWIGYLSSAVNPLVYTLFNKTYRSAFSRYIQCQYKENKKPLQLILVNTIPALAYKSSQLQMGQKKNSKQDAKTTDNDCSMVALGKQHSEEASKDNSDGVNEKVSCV
T2 sequence (P28335 33-458): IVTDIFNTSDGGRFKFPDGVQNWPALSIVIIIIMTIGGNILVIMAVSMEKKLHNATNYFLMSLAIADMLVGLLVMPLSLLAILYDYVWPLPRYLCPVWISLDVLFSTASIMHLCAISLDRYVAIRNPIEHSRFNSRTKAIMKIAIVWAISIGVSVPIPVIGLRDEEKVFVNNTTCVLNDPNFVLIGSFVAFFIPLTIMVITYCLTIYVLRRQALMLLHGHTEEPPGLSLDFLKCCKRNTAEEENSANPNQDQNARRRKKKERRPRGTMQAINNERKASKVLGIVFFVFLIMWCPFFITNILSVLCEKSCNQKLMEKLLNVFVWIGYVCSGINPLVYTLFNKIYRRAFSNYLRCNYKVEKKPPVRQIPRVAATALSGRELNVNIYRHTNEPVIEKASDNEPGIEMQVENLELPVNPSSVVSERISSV

CC[C@@H](CO)NC(=O)[C@@H]1C=C2c3cccc4c3c(cn4C)C[C@H]2N(C)C1 [Methysergide] was tested, and the “plasma protein extravasation as EvansBlue extinction at 600nm” value (“plasma protein extravasation” below) ([1]; 0,1 µg/kg i.v.) was 0,265 ± 0,034, the “plasma protein extravasation” value ([1]; 1 µg/kg i.v.) was 0,250 ± 0,027 and the “plasma protein extravasation” value ([1]; 10 µg/kg i.v.) was 0,228 ± 0,064. The “plasma protein extravasation” value ([1]; 100 µg/kg i.v.) was 0,189 ± 0,026.
Work on CN1CCC(=C2c3ccccc3Sc3ccccc32)CC1 [Pimethixene, 9-(N-methyl-piperidyliden-4)-thioxanthene] yielded a Ki [2] of 0.0631 nM, a Ki [3] of 2.51 nM and a Ki ([4]; H1, read-out: pKi values (converted)) of 0.00794 nM. The affinity ([4]; human H1 receptor, result in words) was “high affinity”, the pKi values ([5]; H2) was “low activity” and the affinity ([5]; human H2 receptor, result in words) was “no affinity”. For the same compound, the pKi values ([6]; H3) was “low activity”, the affinity ([6]; human H3 receptor, result in words) was “no affinity” and the pKi values ([7]; H4) was “low activity”. The affinity ([7]; human H4 receptor, result in words) was “no affinity”, the Ki [8] was 2.51 nM and the Ki [9] was 6.31 nM. For the same compound, the Ki [10] was 25.1 nM, the “plasma protein extravasation” value ([1]; 0,01 µg/kg i.v.) was 0,157 ± 0,040 and the “plasma protein extravasation” value ([1]; 0,1 µg/kg i.v.) was 0,126 ± 0,028. The “plasma protein extravasation” value ([1]; 0,001 µg/kg i.v.) was 0,269 ± 0,022, the Ki [11] was 0.0251 nM and the “affinity for the 5-HT2B receptor versus 5HT2C receptor” value ([11]; selectivity, result in words) was “selective affinity”.
With CN1CCC(=C2c3ccccc3CCc3sccc32)CC1 [Pizotifen] the “plasma protein extravasation” value ([1]; 1 µg/kg i.v.) was 0,404 ± 0,025, the “plasma protein extravasation” value ([1]; 10 µg/kg i.v.) was 0,144 ± 0,035 and the “plasma protein extravasation” value ([1]; 100 µg/kg i.v.) was 0,230 ± 0,018. The Ki [11] was 2.88 nM.
With Clc1cccc(N2CCNCC2)c1 [mCPP, m-chlorophenylpiperazine] the extinction ([1]; positive control: mCPP agonist alone, 1µg/kg, negative control 0,130 ± 0,024) was 0,300 ± 0,038.

Source: patent publication EP1655027A1, “9-(N-methyl-piperidyliden-4)-thioxanthene for treatment of pulmonary hypertension and migraine” (Biofrontera Pharmaceuticals GmbH, priority 2004, dated 2006)
